Values quoted from earlier work as cited in patent US20170095440A1, “METHOD OF TREATING CANINE PANCREATITIS” (CK9, LLC, priority 2014, published 2017).

Target: plasmin (Homo sapiens, UniProt P00747)
Settings: cited from earlier work

Chain of plasmin (P00747 581-810 limits assumed, species assumed): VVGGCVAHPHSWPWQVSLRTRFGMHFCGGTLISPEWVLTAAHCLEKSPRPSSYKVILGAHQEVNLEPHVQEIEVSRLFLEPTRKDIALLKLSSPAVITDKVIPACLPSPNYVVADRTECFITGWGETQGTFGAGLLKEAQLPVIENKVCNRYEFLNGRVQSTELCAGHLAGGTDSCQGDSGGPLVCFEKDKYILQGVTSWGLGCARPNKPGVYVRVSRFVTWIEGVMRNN
Chain of plasmin (P00747 97-580 partner limits assumed, species assumed): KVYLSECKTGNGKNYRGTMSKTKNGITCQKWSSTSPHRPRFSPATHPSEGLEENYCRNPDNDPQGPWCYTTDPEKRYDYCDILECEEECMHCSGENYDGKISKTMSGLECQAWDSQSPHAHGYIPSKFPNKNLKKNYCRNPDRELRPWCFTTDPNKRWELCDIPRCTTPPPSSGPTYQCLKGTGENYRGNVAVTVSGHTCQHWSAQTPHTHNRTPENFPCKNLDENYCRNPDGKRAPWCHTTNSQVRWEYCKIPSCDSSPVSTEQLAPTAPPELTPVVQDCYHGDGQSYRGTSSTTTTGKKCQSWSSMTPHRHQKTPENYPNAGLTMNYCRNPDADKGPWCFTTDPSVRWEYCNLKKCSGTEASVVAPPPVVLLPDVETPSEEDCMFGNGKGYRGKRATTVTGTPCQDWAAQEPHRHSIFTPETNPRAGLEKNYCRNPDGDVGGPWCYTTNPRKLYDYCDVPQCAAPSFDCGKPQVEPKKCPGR

CN(C)C(=O)COC(=O)Cc1ccc(OC(=O)c2ccc(NC(=N)N)cc2)cc1 [Camostat Mesilate, N,N-dimethylcarbamoylmethyl-4-(4-guanidinobenzoyloxy)phenylacetate methanesulfonate]
Anti-plasmin activity: anti-plasmin activity
